{"source": "patent US20250162995A1", "about": "“PHENTOLAMINE MESYLATE AND THERAPEUTIC USES THEREOF” (Opus Genetics, Inc., priority 2023, published 2025)", "note": "Counter-ions that a name gives are not always drawn.", "data": [{"assay": "XRPD analysis of the solid form after further drying (form stability)", "type": "physicochemical", "conditions": "further dried at 0.24 bar and 25° C. for 16 hours", "description": "Unless otherwise noted, XRPD data was collected using a PANanalytical EMPYREAN vs. 8.2 20201404 diffractometer with a Cu-Kα radiation (λ=1.541874 Å) source operating at 45 kV and 40 mA in transmission theta-theta configuration. Samples were scanned from 2° to 40° 2-theta with a step size of 0.013° 2-theta and a time per step of 78.795 sec. Data collection was performed with DATA COLLECTOR vs. 7.1 and processed with Data Viewer vs. 2.1 and Profex 5.2.4 software.\nThe phentolamine mesylate obtained according to this Example 4 was further dried at 0.24 bar and 25° C. for 16 hours.\nThe phentolamine mesylate obtained according to this Example 6 was further dried at 25° C. at 0.24 bar for 16 hours.\nThe phentolamine mesylate obtained according to this Example 7 was further dried at 0.24 bars at 25° C. for 16 hours.\nThe phentolamine mesylate obtained according to this Example 11 was further dried at 25° C. and 0.24 bar for 16 hours.\nThe phentolamine mesylate obtained according to this Example 12 was further dried at 25° C. and 0.24 bar for 16 hours.", "values": [{"smiles": "Cc1ccc(N(CC2=NCCN2)c2cccc(O)c2)cc1", "note": "[Example 4, phentolamine mesylate]", "solid form found by XRPD analysis of the further dried material": "converted to a mixture of the phentolamine mesylate having XRPD peaks of Reference A and the phentolamine mesylate obtained according to Example 1"}, {"smiles": "Cc1ccc(N(CC2=NCCN2)c2cccc(O)c2)cc1", "note": "[Example 6, phentolamine mesylate]", "solid form found by XRPD analysis of the further dried material": "converted to the phentolamine mesylate obtained according to Example 1"}, {"smiles": "Cc1ccc(N(CC2=NCCN2)c2cccc(O)c2)cc1", "note": "[Example 7, phentolamine mesylate]", "solid form found by XRPD analysis of the further dried material": "converted to the phentolamine mesylate obtained according to Example 1"}, {"smiles": "Cc1ccc(N(CC2=NCCN2)c2cccc(O)c2)cc1", "note": "[Example 11, phentolamine mesylate]", "solid form found by XRPD analysis of the further dried material": "converted to the phentolamine mesylate obtained according to Example 1"}, {"smiles": "Cc1ccc(N(CC2=NCCN2)c2cccc(O)c2)cc1", "note": "[Example 12, phentolamine mesylate]", "solid form found by XRPD analysis of the further dried material": "converted to the phentolamine mesylate obtained according to Example 1"}]}]}
